Laboratory results taken from PubChem BioAssay (NCI).
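Step 1: Grow cells in 96-well plates. Step 2: Expose to compound for 48 hours at 5 concentrations. Step 3: Interpolate endpoints linearly; if unreached, use highest concentration. The concentration for full growth arrest is given as TGI.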

These compounds were tested on 786-0 renal (assay: NCI tumour cell line growth inhibition, 48 h).
`COc1ccc(/C=c2/sc3n(c2=O)C(c2ccccc2)C2(O)CCCCC2N=3)cc1` (configuration not stated) showed a TGI of over 12.5 µM. Compound `CCCN(CCC)CCc1ccc(OC2=CCN(C)CC2)cc1` has a TGI of over 100 µM. With `O=C1OCN(c2ccccc2)C12CCN(Cc1ccccc1)CC2` the TGI was 79.2 µM. `Cc1ccc2c(c1)[nH]c(=S)n2C=C(C(N)=O)C(N)=O` was tested, and the TGI was over 100 µM. `Cn1c(=O)c2c3ccccc3n(C)c2n(C)c1=O` gave a TGI of over 100 µM. In the case of `CN(C)CCNc1ccc([N+](=O)[O-])c2sc3ccccc3c(=O)c12`, the TGI is reported as 20.8 µM. Work on `COc1cc(NC(C)c2ccc3c(c2)OCCO3)cc(OC)c1OC` (configuration not stated) yielded a TGI of over 100 µM. In the case of `CN1Cc2ccccc2S(=O)(=O)n2cccc2C1=O`, the TGI is reported as over 100 µM. Compound `Cc1cccc2oc3c(CC(=O)O)cccc3c(=O)c12` has a TGI of over 100 µM. `S=c1nc2sc3c(c2c(Nc2ccc(Cl)cc2)[nH]1)CCCC3` was tested, and the TGI was over 100 µM. For `CCCCS(=O)(=O)CCC(N)P(=O)(O)O` (configuration not stated), the TGI was over 100 µM. `O=[N+]([O-])c1cccc2nc3ccccc3c(NCCCCNc3c4ccccc4nc4cccc([N+](=O)[O-])c34)c12` showed a TGI of 0.0943 µM. `C/C=C/C(C#N)(/C=C/c1ccccc1)OP1(=O)OC(c2ccccc2)C(C)N1C` (configuration not stated) was tested, and the TGI was 31.7 µM. Compound `CN(C)CCCN1c2ccc([N+](=O)[O-])cc2CCc2cccc([N+](=O)[O-])c21` has a TGI of 26.5 µM. Compound `C=C(C)[C@@H]1CCC2=C[C@@H](OC2=O)[C@@H](C(=C)C)C2=CC(C(=O)O)=C(C1)O2` has a TGI of over 100 µM. For `S=C(N1CCN(c2ccc(Cl)c(Cl)c2)CC1)N1CCN(c2ccc(Cl)c(Cl)c2)CC1`, the TGI was 22.7 µM. `Cc1ccc(S(=O)(=O)NC(=O)NC(CC(N)=O)C(=O)O)cc1` (configuration not stated) was tested, and the TGI was over 100 µM. `CSCCCN(CCCSC)CCCSC` gave a TGI of over 100 µM. `COc1cc(-c2ccc(Br)[nH]2)[nH]c1C=NCC(C)C` was tested, and the TGI was 3.27 µM. For `Cc1ccc(-c2n[nH]c(Cc3nc(-c4ccc(C)cc4)n[nH]3)n2)cc1`, the TGI was over 100 µM. `c1ccc(C(C2=Nc3cccc4cccc(c34)N2)c2ccccc2)cc1` gave a TGI of 69.9 µM. Compound `Cc1nnc2n1N=C(c1ccccc1)/C(=C/c1ccc(-c3ccc(Cl)cc3)o1)S2` has a TGI of 27.2 µM. `CN(CC(=O)N1CC(CCl)c2ccc([N+](=O)[O-])cc21)CC(=O)N1CC(CCl)c2ccc([N+](=O)[O-])cc21` (configuration not stated) gave a TGI of over 100 µM. In the case of `COC(=O)NC(Nc1ccccn1)(C(F)(F)F)C(F)(F)F`, the TGI is reported as over 100 µM. Work on `CC(=O)Nc1oc(C)c(C)c1S(=O)(=O)c1ccc(Cl)cc1` yielded a TGI of over 100 µM. Compound `COC1(c2ccc(Cl)cc2)SC=C(C)n2c1noc2=O` (configuration not stated) has a TGI of over 100 µM. Work on `NC1CC(=O)c2cscc21` (configuration not stated) yielded a TGI of 28.4 µM. Work on `CC1=CC(=O)[C@@H](O)[C@]2(C)[C@H]3[C@@]4(O)OC[C@]35[C@H]([C@@H](C)[C@H]4O)[C@@H](OC(=O)C(C)(C)CO)C(=O)O[C@@H]5C[C@@H]12` yielded a TGI of 4.83 µM.

Each compound was assayed on A498 renal (assay: NCI tumour cell line growth inhibition, 48 h).
`Cc1ccc2c(c1)[nH]c(=S)n2C=C(C(N)=O)C(N)=O` was tested, and the TGI was over 100 µM. In the case of `Cn1c(=O)c2c3ccccc3n(C)c2n(C)c1=O`, the TGI is reported as over 100 µM. `COc1cc(NC(C)c2ccc3c(c2)OCCO3)cc(OC)c1OC` (configuration not stated) was tested, and the TGI was over 100 µM. Compound `CN1Cc2ccccc2S(=O)(=O)n2cccc2C1=O` has a TGI of over 100 µM. With `Cc1cccc2oc3c(CC(=O)O)cccc3c(=O)c12` the TGI was over 100 µM. Compound `S=c1nc2sc3c(c2c(Nc2ccc(Cl)cc2)[nH]1)CCCC3` has a TGI of over 100 µM. `C/C=C/C(C#N)(/C=C/c1ccccc1)OP1(=O)OC(c2ccccc2)C(C)N1C` (configuration not stated) was tested, and the TGI was 35.6 µM. `C=C(C)[C@@H]1CCC2=C[C@@H](OC2=O)[C@@H](C(=C)C)C2=CC(C(=O)O)=C(C1)O2` showed a TGI of over 100 µM. In the case of `COc1cc(-c2ccc(Br)[nH]2)[nH]c1C=NCC(C)C`, the TGI is reported as 7.16 µM. In the case of `Cc1nnc2n1N=C(c1ccccc1)/C(=C/c1ccc(-c3ccc(Cl)cc3)o1)S2`, the TGI is reported as 31.4 µM. In the case of `CN(CC(=O)N1CC(CCl)c2ccc([N+](=O)[O-])cc21)CC(=O)N1CC(CCl)c2ccc([N+](=O)[O-])cc21` (configuration not stated), the TGI is reported as over 100 µM. Work on `COC(=O)NC(Nc1ccccn1)(C(F)(F)F)C(F)(F)F` yielded a TGI of over 100 µM. `CC(=O)Nc1oc(C)c(C)c1S(=O)(=O)c1ccc(Cl)cc1` was tested, and the TGI was over 100 µM. In the case of `COC1(c2ccc(Cl)cc2)SC=C(C)n2c1noc2=O` (configuration not stated), the TGI is reported as over 100 µM. With `CC1=CC(=O)[C@@H](O)[C@]2(C)[C@H]3[C@@]4(O)OC[C@]35[C@H]([C@@H](C)[C@H]4O)[C@@H](OC(=O)C(C)(C)CO)C(=O)O[C@@H]5C[C@@H]12` the TGI was 5.39 µM.

Each compound was assayed on A549 NSCLC (assay: NCI tumour cell line growth inhibition, 48 h).
In the case of `COc1ccc(/C=c2/sc3n(c2=O)C(c2ccccc2)C2(O)CCCCC2N=3)cc1` (configuration not stated), the TGI is reported as over 12.5 µM. Work on `CCCN(CCC)CCc1ccc(OC2=CCN(C)CC2)cc1` yielded a TGI of over 100 µM. In the case of `O=C1OCN(c2ccccc2)C12CCN(Cc1ccccc1)CC2`, the TGI is reported as over 100 µM. Work on `Cc1ccc2c(c1)[nH]c(=S)n2C=C(C(N)=O)C(N)=O` yielded a TGI of over 100 µM. `Cn1c(=O)c2c3ccccc3n(C)c2n(C)c1=O` gave a TGI of over 100 µM. Work on `CN(C)CCNc1ccc([N+](=O)[O-])c2sc3ccccc3c(=O)c12` yielded a TGI of 20.2 µM. In the case of `COc1cc(NC(C)c2ccc3c(c2)OCCO3)cc(OC)c1OC` (configuration not stated), the TGI is reported as over 100 µM. `CN1Cc2ccccc2S(=O)(=O)n2cccc2C1=O` gave a TGI of over 100 µM. For `Cc1cccc2oc3c(CC(=O)O)cccc3c(=O)c12`, the TGI was over 100 µM. With `CCCCS(=O)(=O)CCC(N)P(=O)(O)O` (configuration not stated) the TGI was over 100 µM. With `O=[N+]([O-])c1cccc2nc3ccccc3c(NCCCCNc3c4ccccc4nc4cccc([N+](=O)[O-])c34)c12` the TGI was over 33.2 µM. `C/C=C/C(C#N)(/C=C/c1ccccc1)OP1(=O)OC(c2ccccc2)C(C)N1C` (configuration not stated) showed a TGI of 45.4 µM. For `CN(C)CCCN1c2ccc([N+](=O)[O-])cc2CCc2cccc([N+](=O)[O-])c21`, the TGI was 29.5 µM. In the case of `C=C(C)[C@@H]1CCC2=C[C@@H](OC2=O)[C@@H](C(=C)C)C2=CC(C(=O)O)=C(C1)O2`, the TGI is reported as over 100 µM.
